Reference: patent US20230339937A1, “CONDENSED RING COMPOUNDS THAT INHIBIT H-PGDS” (SATO PHARMACEUTICAL CO., LTD., priority 2020, published 2023)

Biological target: T1, Recombinant human H-PGDS (Homo sapiens, UniProt O60760)
T1 construct: made in house; host or cells: E. coli
Test: H-PGDS inhibitory activity (prostaglandin D2 production from prostaglandin H2, measured by LC-MS/MS)
Format: biochemical
Settings: recombinant human H-PGDS 1.0 nM expressed in E. coli; prostaglandin H2 25 μM; preincubated 15 minutes on ice, reacted on ice for 1 minute; concentration that inhibits prostaglandin D2 production by 50%
Protocol: The H-PGDS inhibitory activity of each Example compound was measured according to the method reported by LIN, Jiang. et al. (NO 2007/041634).
Recombinant human H-PGDS (final concentration: 1.0 nM) expressed in E. coli was mixed in an assay buffer containing 20 mM Tris-HCl (pH 8.0), 2 mM magnesium chloride, 2 mM reduced glutathione, and 0.5 mg/mL γ-globulin, and 150 μL of the mixture was dispensed into a 8-strip PCR tube (BM Equipment Co., Ltd.). Test compounds (Example compounds) (16.5 μL) at various concentrations dissolved in DMSO were added and the mixture was preincubated for 15 minutes on ice.
Prostaglandin H2 (final concentration: 25 μM) (Cayman Chemical) was dispensed into another 8-strip PCR tube, and the solvent was dried and solidified using a vacuum concentrator (Thermo Fisher Scientific). To the dried and solidified prostaglandin H2 was added 50 μL of the assay buffer containing H-PGDS and each test compound after the preincubation, and the mixture was reacted on ice for 1 minute. 45 μL of this mixture was added to 45 μL of a stop solution (50 mM aqueous citric acid solution containing iron chloride at a final concentration of 4 mg/mL) to stop the reaction. Then, the reaction solution was deproteinized, added to a 96 square deep well plate (SHONANMARUHACHI STEC Co., Ltd.), and the prostaglandin D2 concentration in the reaction solution was measured by LC-MS/MS. ACQUITY (registered trademark) TQD (Waters) was used as a measuring instrument.
Prostaglandin Da production activity (f) in the group with each test compound when a value obtained by subtracting the amount of production of prostaglandin D2 in the group without enzyme, which is non-specific production of prostaglandin D2, from the amount of production of prostaglandin Da in the group without test compound (DMSO-addition group) in each 8-strip PCR tube is 100% was calculated.

T1 sequence (O60760 whole entry): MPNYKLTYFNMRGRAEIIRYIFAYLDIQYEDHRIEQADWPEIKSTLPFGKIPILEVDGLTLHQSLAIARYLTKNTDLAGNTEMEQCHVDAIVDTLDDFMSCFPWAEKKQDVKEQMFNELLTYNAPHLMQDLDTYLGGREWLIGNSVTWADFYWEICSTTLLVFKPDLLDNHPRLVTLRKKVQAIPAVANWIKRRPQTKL

IC50	Structure (SMILES)
0.65 nM	O=C(NCCCO)c1ccc(-c2nccc3[nH]ccc23)cc1 [Example 30, N-(3-hydroxypropyl)-4-(1H-pyrrolo[3,2-c]pyridin-4-yl)benzamide]
1.6 nM	O=C(N[C@H]1CC[C@H](C2(O)CC2)CC1)c1ccc(-c2nccc3occc23)cc1 [Example 257, 4-(furo[3,2-c]pyridin-4-yl)-N-[trans-4-(1-hydroxycyclopropyl)cyclohexyl]benzamide]
1.9 nM	O=C(NC12CCC(O)(CC1)CC2)c1ccc(-c2nccc3occc23)cc1 [Example 260, 4-(furo[3,2-c]pyridin-4-yl)-N-(4-hydroxybicyclo[2.2.2]octan-1-yl)benzamide]
0.63 nM	CCn1nccc1CNC(=O)c1ccc(-c2nccc3[nH]ccc23)cc1 [Example 51, N-[(1-ethyl-1H-pyrazol-5-yl)methyl]-4-(1H-pyrrolo[3,2-c]pyridin-4-yl)benzamide]
2.3 nM	Cc1cccc(N2CCC(NC(=O)c3ccc(-c4nccc5occc45)cc3)CC2)n1 [Example 152, 4-(furo[3,2-c]pyridin-4-yl)-N-[1-(6-methylpyridin-2-yl)piperidin-4-yl]benzamide]
2.3 nM	N#CN1CCC(NC(=O)c2ccc(-c3nccc4occc34)cc2)CC1 [Example 247, N-(1-cyanopiperidin-4-yl)-4-(furo[3,2-c]pyridin-4-yl)benzamide]
3.5 nM	CC1(C)CC(NC(=O)c2ccc(-c3nccc4occc34)cc2)CCC1O (stereo not shown) [Example 277, 4-(furo[3,2-c]pyridin-4-yl)-N-(4-hydroxy-3,3-dimethylcyclohexyl)benzamide]
1.8 nM	O=C(NC1CCN(c2ccncc2)CC1)c1ccc(-c2nccc3occc23)cc1 [Example 123, 4-(furo[3,2-c]pyridin-4-yl)-N-[1-(pyridin-4-yl)piperidin-4-yl]benzamide]
74 nM	Cc1cc(C(=O)N[C@H]2CC[C@H](C(C)(C)O)CC2)ccc1-c1nccc2occc12 [Example 132, 4-(furo[3,2-c]pyridin-4-yl)-N-[trans-4-(2-hydroxypropan-2-yl)cyclohexyl]-3-methylbenzamide]
15 nM	CC(O)CNC(=O)c1ccc(-c2nccc3occc23)cc1 (stereo not shown) [Example 68, 4-(furo[3,2-c]pyridin-4-yl)-N-(2-hydroxypropyl) benzamide]
1.1 nM	O=C(N[C@@H]1CN(c2ncc(CO)cn2)C[C@@H]1F)c1ccc(-c2nccc3occc23)cc1 [Example 204, N-{(3R,4S)-4-fluoro-1-[5-(hydroxymethyl)pyrimidin-2-yl]pyrrolidin-3-yl}-4-(furo[3,2-c]pyridin-4-yl)benzamide]
11 nM	COCCN[C@H]1CC[C@H](NC(=O)c2ccc(-c3nccc4occc34)cc2)CC1 [Example 301, 4-(furo[3,2-c]pyridin-4-yl)-N-{trans-4-[(2-methoxyethyl)amino]cyclohexyl}benzamide]
2.8 nM	O=C(N[C@H]1CCCC[C@H]1O)c1ccc(-c2nccc3occc23)cc1 (relative stereo) [Example 273, 4-(furo[3,2-c]pyridin-4-yl)-N-(cis-2-hydroxycyclohexyl)benzamide]
0.76 nM	O=C(NC1CCN(c2cccnn2)CC1)c1ccc(-c2nccc3occc23)cc1 [Example 190, 4-(furo[3,2-c]pyridin-4-yl)-N-[1-(pyridazin-3-yl)piperidin-4-yl]benzamide]
1.2 nM	O=C(NC1CCN(c2nncs2)CC1)c1ccc(-c2nccc3occc23)cc1 [Example 237, N-[1-(1,3,4-thiadiazol-2-yl)piperidin-4-yl]-4-(furo[3,2-c]pyridin-4-yl)benzamide]
160 nM	CC(O)c1cnc(-c2ccc(C(=O)N[C@H]3CC[C@H](C(C)(C)O)CC3)cc2)c2ccoc12 (stereo partly drawn) [Example 141, 4-[7-(1-hydroxyethyl)furo[3,2-c]pyridin-4-yl]-N-[trans-4-(2-hydroxypropan-2-yl)cyclohexyl]benzamide]

IC50	Structure (SMILES)
2.4 nM	O=C(N[C@H]1CC[C@](O)(C2CC2)CC1)c1ccc(-c2nccc3occc23)cc1 [Example 291, N-(cis-4-cyclopropyl-4-hydroxycyclohexyl)-4-(furo[3,2-c]pyridin-4-yl)benzamide]
1.2 nM	Cc1cc(=O)[nH]c(N2CCC(NC(=O)c3ccc(-c4nccc5occc45)cc3)CC2)n1 [Example 181, 4-(furo[3,2-c]pyridin-4-yl)-N-[1-(4-methyl-6-oxo-1,6-dihydropyrimidin-2-yl)piperidin-4-yl]benzamide]
1.1 nM	O=C(N[C@H]1CC[C@H](NCC(F)F)CC1)c1ccc(-c2nccc3occc23)cc1 [Example 294, N-{trans-4-[(2,2-difluoroethyl)amino]cyclohexyl}-4-(furo[3,2-c]pyridin-4-yl)benzamide]
4.9 nM	O=C(NCC1COc2ccccc2C1)c1ccc(-c2nccc3occc23)cc1 (stereo not shown) [Example 221, N-(chroman-3-ylmethyl)-4-(furo[3,2-c]pyridin-4-yl)benzamide]
32 nM	O=C(NCC1CCCCC1)c1ccc(-c2nccc3occc23)cc1 [Example 85, N-(cyclohexyl-methyl)-4-(furo[3,2-c]pyridin-4-yl)benzamide]
19 nM	O=C(Nc1ccccn1)c1ccc(-c2nccc3occc23)cc1 [Example 107, 4-(furo[3,2-c]pyridin-4-yl)-N-(pyridin-2-yl)benzamide]
0.85 nM	O=C(NCCCCCCO)c1ccc(-c2nccc3[nH]ccc23)cc1 [Example 17, N-(6-hydroxyhexyl)-4-(1H-pyrrolo[3,2-c]pyridin-4-yl)benzamide]
1.3 nM	O=C(N[C@H]1CC[C@H](NCC(F)F)CC1)c1ccc(-c2nccc3occc23)c(F)c1 [Example 326, N-{trans-4-[(2,2-difluoroethyl)amino]cyclohexyl}-3-fluoro-4-(furo[3,2-c]pyridin-4-yl)benzamide]
0.82 nM	O=C(NCC1CCOC1)c1ccc(-c2nccc3[nH]ccc23)cc1 (stereo not shown) [Example 21, 4-(1H-pyrrolo[3,2-c]pyridin-4-yl)-N-[(tetrahydrofuran-3-yl)methyl] benzamide]
2 nM	Cc1cc2occc2c(-c2ccc(C(=O)N[C@H]3CC[C@H](C4(O)CC4)CC3)cc2)n1 [Example 334, N-[trans-4-(1-hydroxycyclopropyl)cyclohexyl]-4-(6-methylfuro[3,2-c]pyridin-4-yl)benzamide]
0.45 nM	O=C(NC1CCN(c2ccccn2)CC1)c1ccc(-c2nccc3occc23)cc1 [Example 118, 4-(furo[3,2-c]pyridin-4-yl)-N-[1-(pyridin-2-yl)piperidin-4-yl]benzamide]
1.9 nM	O=C(NC1CCN(c2ccncn2)CC1)c1ccc(-c2nccc3occc23)cc1 [Example 171, 4-(furo[3,2-c]pyridin-4-yl)-N-[1-(pyrimidin-4-yl)piperidin-4-yl]benzamide]
5.5 nM	O=C(Nc1ccc(F)cc1)c1ccc(-c2nccc3occc23)cc1 [Example 111, N-(4-fluorophenyl)-4-(furo[3,2-c]pyridin-4-yl)benzamide]
1.9 nM	COc1ccnc(N2CCC(NC(=O)c3ccc(-c4nccc5occc45)cc3)CC2)n1 [Example 162, 4-(furo[3,2-c]pyridin-4-yl)-N-[1-(4-methoxypyrimidin-2-yl)piperidin-4-yl]benzamide]
6.2 nM	O=C(NC1CCN(c2cnc(CO)cn2)CC1)c1ccc(-c2nccc3occc23)cc1 [Example 170, 4-(furo[3,2-c]pyridin-4-yl)-N-{1-[5-(hydroxymethyl)pyrazin-2-yl]piperidin-4-yl}benzamide]
